Values after ≈ are worked out from the molar mass of the structure shown.
Columns and labels:
[1] = test system: Mycobacterium tuberculosis; assay: Antimycobacterial activity against Mycobacterium tuberculosis H37Rv mc2 6206 assessed as inhibition of bacterial growth measured after 7 days by visual analysis; format: functional; details: H37Rv mc2 6206, 168 h, time 7 day
[2] = test system: Mycobacteroides abscessus; assay: Antimycobacterial activity against Mycobacterium abscessus […] assessed as inhibition of bacterial growth measured after 5 days by visual analysis; format: functional; details: 120 h, time 5 day
[3] = Metabolic stability in mouse liver S9 fraction assessed as parent compound remaining at 5 ug/ml after 90 mins in presence of NADPH by LC/MS analysis; format: ADME, subcellular; details: s9, 1.5 h, dose 5 µg/ml
[4] = Metabolic stability in human liver S9 fraction assessed as parent compound remaining at 5 ug/ml after 90 mins in presence of NADPH by LC/MS analysis; format: ADME, subcellular; details: s9, 1.5 h, dose 5 µg/ml
[5] = Selectivity index, ratio of IC50 for Cytotoxicity against human WI26VA4 cells to MIC for antimycobacterial activity against Mycobacterium abscessus […]; format: toxicity, cell-based; details: read-out: Selectivity Index
[6] = Permeability of the compound by PAMPA method; format: ADME
[7] = Cytotoxicity against human WI26VA4 cells assessed as inhibition of cell growth measured after 72 hrs by MTT assay; format: toxicity, cell-based
[8] = Selectivity index, ratio of IC50 for Cytotoxicity against human WI26VA4 cells to MIC for antimycobacterial activity against Mycobacterium tuberculosis H37Rv mc2 6206; format: toxicity, cell-based; details: read-out: Selectivity Index
[9] = Plasma protein binding in human at 10 ug/ml incubated for 4 hrs under shaking condition by LC/MS/MS analysis; format: ADME, cell-free; details: at 10 µg/mL, read-out: PPB (converted)
[10] = Kinetic solubility of compound at pH 7.4 incubated for 6 hrs by LC-MS/MS analysis; format: physicochemical; details: buffer, read-out: Kinetic_solubility
Mycobacterium kansasii = assay: Antimycobacterial activity against Mycobacterium kansasii ATCC 1279 assessed as inhibition of bacterial growth by visual analysis; format: functional
[11] = test system: Mycolicibacterium fortuitum; assay: Antimycobacterial activity against Mycobacterium fortuitum ATCC 6841 assessed as inhibition of bacterial growth by visual analysis; format: functional
[12] = test system: Mycobacterium intracellulare; assay: Antimycobacterial activity against Mycobacterium intracellulare 1956 assessed as inhibition of bacterial growth by visual analysis; format: functional
[13] = Antimycobacterial activity against Mycobacterium avium subsp. avium 2585R assessed as inhibition of bacterial growth by visual analysis; format: functional
[14] = test system: Mycobacterium intracellulare subsp. chimaera; assay: Antimycobacterial activity against Mycobacterium intracellulare subsp. chimaera 1501948 assessed as inhibition of bacterial growth by visual analysis; format: functional
Mycobacteroides chelonae = assay: Antimycobacterial activity against Mycobacteroides chelonae ATCC 35752 assessed as inhibition of bacterial growth by visual analysis; format: functional

## C[C@@H]1[C@H]2C[C@@H](C[C@H]1NC(=O)CNc1ccc(C(F)(F)F)cc1)C2(C)C
[1]
  MIC: 16 µg/mL (≈ 45.1 µM)
[2]
  MIC: 32 µg/mL (≈ 90.3 µM)

## COc1ccc(NCC(=O)NC23CC4CC(CC(C4)C2)C3)cc1
[1]
  MIC: 32 µg/mL (≈ 102 µM)
[2]
  MIC: 32 µg/mL (≈ 102 µM)

## COc1ccc(NCC(=O)NC2CCCCCCC2)cc1
[1]
  MIC: 64 µg/mL (≈ 220 µM)
[2]
  MIC: > 64 µg/mL

## Cc1ccc(NCC(=O)NC23CC4CC(CC(C4)C2)C3)cc1
[1]
  MIC: 32 µg/mL (≈ 107 µM)
[2]
  MIC: 32 µg/mL (≈ 107 µM)

## O=C(CNc1ccc(Cl)cc1)NC1CCCCCCC1
[1]
  MIC: 64 µg/mL (≈ 217 µM)
[2]
  MIC: 32 µg/mL (≈ 109 µM)

## COc1ccc(NCC(=O)N[C@@H]2C[C@@H]3C[C@H]([C@H]2C)C3(C)C)cc1
[1]
  MIC: 64 µg/mL (≈ 202 µM)
[2]
  MIC: 32 µg/mL (≈ 101 µM)

## Cc1ccc(NCC(=O)NC2C3CC4CC(C3)CC2C4)cc1 (stereo unspecified)
[1]
  MIC: 4 µg/mL (≈ 13.4 µM)
[2]
  MIC: 16 µg/mL (≈ 53.6 µM)

## COc1ccc(NCC(=O)NC2C3CC4CC(C3)CC2C4)cc1 (stereo unspecified)
[1]
  MIC: 32 µg/mL (≈ 102 µM)
[2]
  MIC: 32 µg/mL (≈ 102 µM)

## O=C(CNc1ccc(C(F)(F)F)cc1)NC1C2CC3CC(C2)CC1C3 (stereo unspecified)
[1]
  MIC: 2 µg/mL (≈ 5.68 µM)
[2]
  MIC: 4 µg/mL (≈ 11.4 µM)
[3]
  t1/2: 15.6 h
[4]
  t1/2: 5.8 h
[5]
  selectivity ratio: > 5
[6]
  permeability: 0.34 10^-6 cm/s
[7]
  IC50: > 20 µg/mL
[8]
  selectivity ratio: > 10
[9]
  fraction unbound at 4 h, 10 ug/ml: 0.057
[10]
  solubility kinetic at 6 h: 23.9 µg/mL (≈ 67.8 µM)

## O=C(CNc1cccc(Br)c1)NC12CC3CC(CC(C3)C1)C2
[1]
  MIC: 32 µg/mL (≈ 88.1 µM)
[2]
  MIC: 1 µg/mL (≈ 2.75 µM)
[4]
  t1/2: 0.5 h
[5]
  selectivity ratio: > 20
[6]
  permeability: 1.02 10^-6 cm/s
[7]
  IC50: > 20 µg/mL
[8]
  selectivity ratio: > 20
[9]
  fraction unbound at 4 h, 10 ug/ml: 0.068
[10]
  solubility kinetic at 6 h: 22.2 µg/mL (≈ 61.1 µM)

## C[C@@H]1[C@H]2C[C@@H](C[C@H]1NC(=O)CNc1ccc(Cl)cc1)C2(C)C
[1]
  MIC: 16 µg/mL (≈ 49.9 µM)
[2]
  MIC: 4 µg/mL (≈ 12.5 µM)

## O=C(CNc1ccccc1)NC1CCCCCCC1
[1]
  MIC: 8 µg/mL (≈ 30.7 µM)
[2]
  MIC: 8 µg/mL (≈ 30.7 µM)

## O=C(CNc1ccccc1Cl)NC12CC3CC(CC(C3)C1)C2
[1]
  MIC: 8 µg/mL (≈ 25.1 µM)
[2]
  MIC: 16 µg/mL (≈ 50.2 µM)

## O=C(CNc1ccc(OC(F)(F)F)cc1)NC1C2CC3CC(C2)CC1C3 (stereo unspecified)
[1]
  MIC: 4 µg/mL (≈ 10.9 µM)
[2]
  MIC: 2 µg/mL (≈ 5.43 µM)
[3]
  t1/2: 3.7 h
[4]
  t1/2: 5.9 h
[5]
  selectivity ratio: > 10
[6]
  permeability: 3.12 10^-6 cm/s
[7]
  IC50: > 20 µg/mL
[8]
  selectivity ratio: > 5
[9]
  fraction unbound at 4 h, 10 ug/ml: 0.033
[10]
  solubility kinetic at 6 h: 20.3 µg/mL (≈ 55.1 µM)

## O=C(CNc1ccc(Cl)cc1)NC12CC3CC(CC(C3)C1)C2
[1]
  MIC: 16 µg/mL (≈ 50.2 µM)
[2]
  MIC: 4 µg/mL (≈ 12.5 µM)

## O=C(CNc1ccccc1)NC1C2CC3CC(C2)CC1C3 (stereo unspecified)
[1]
  MIC: 16 µg/mL (≈ 56.3 µM)
[2]
  MIC: > 64 µg/mL

## O=C(CNc1ccc(C(F)(F)F)cc1)NC1CCCCCCC1
[1]
  MIC: 32 µg/mL (≈ 97.4 µM)
[2]
  MIC: 64 µg/mL (≈ 195 µM)

## O=C(CNc1ccccc1)NC12CC3CC(CC(C3)C1)C2
[1]
  MIC: 32 µg/mL (≈ 113 µM)
[2]
  MIC: 16 µg/mL (≈ 56.3 µM)

## C[C@@H]1[C@H]2C[C@@H](C[C@H]1NC(=O)CNc1cccc(Br)c1)C2(C)C
[1]
  MIC: 0.5 µg/mL (≈ 1.37 µM)
[2]
  MIC: 1 µg/mL (≈ 2.74 µM)
Mycobacterium kansasii
  MIC: 8 µg/mL (≈ 21.9 µM)
[3]
  t1/2: 5.8 h
[4]
  t1/2: 4.2 h
[11]
  MIC: 2 µg/mL (≈ 5.47 µM)
[5]
  selectivity ratio: > 20
[6]
  permeability: 1.01 10^-6 cm/s
[12]
  MIC: 8 µg/mL (≈ 21.9 µM)
[7]
  IC50: > 20 µg/mL
[8]
  selectivity ratio: > 40
[9]
  fraction unbound at 4 h, 10 ug/ml: 0.045
[13]
  MIC: 16 µg/mL (≈ 43.8 µM)
[10]
  solubility kinetic at 6 h: 18.6 µg/mL (≈ 50.9 µM)
[14]
  MIC: 16 µg/mL (≈ 43.8 µM)
Mycobacteroides chelonae
  MIC: 8 µg/mL (≈ 21.9 µM)

## C[C@@H]1[C@H]2C[C@@H](C[C@H]1NC(=O)CNc1ccccc1)C2(C)C
[1]
  MIC: 64 µg/mL (≈ 223 µM)
[2]
  MIC: > 64 µg/mL

## C[C@@H]1[C@H]2C[C@@H](C[C@H]1NC(=O)CNc1ccc(Br)cc1)C2(C)C
[1]
  MIC: 16 µg/mL (≈ 43.8 µM)
[2]
  MIC: 4 µg/mL (≈ 10.9 µM)

## O=C(CNc1ccc(Br)cc1)NC1C2CC3CC(C2)CC1C3 (stereo unspecified)
[1]
  MIC: 4 µg/mL (≈ 11 µM)
[2]
  MIC: 4 µg/mL (≈ 11 µM)

## O=C(CNc1ccccc1Br)NC12CC3CC(CC(C3)C1)C2
[1]
  MIC: 8 µg/mL (≈ 22 µM)
[2]
  MIC: 8 µg/mL (≈ 22 µM)

## CNC(=C[N+](=O)[O-])NCCSCc1ccc(CN(C)C)o1 [RANITIDINE]
[6]
  permeability: 3.47 10^-6 cm/s
[9]
  fraction unbound at 4 h, 10 ug/ml: 0.793
[10]
  solubility kinetic at 6 h: 77.5 µg/mL (≈ 246 µM)

## Cc1ccc(NCC(=O)N[C@@H]2C[C@@H]3C[C@H]([C@H]2C)C3(C)C)cc1
[1]
  MIC: 16 µg/mL (≈ 53.3 µM)
[2]
  MIC: 8 µg/mL (≈ 26.6 µM)

## C[C@H]1CC[C@H](NC(=O)CNc2ccc(Cl)cc2)CC1
[1]
  MIC: 64 µg/mL (≈ 228 µM)
[2]
  MIC: > 64 µg/mL

## O=C(CNc1ccc(OC(F)(F)F)cc1)NC1CCCCCCC1
[1]
  MIC: 32 µg/mL (≈ 92.9 µM)
[2]
  MIC: 8 µg/mL (≈ 23.2 µM)

## C[C@@H]1[C@H]2C[C@@H](C[C@H]1NC(=O)CNc1ccc(OC(F)(F)F)cc1)C2(C)C
[1]
  MIC: 4 µg/mL (≈ 10.8 µM)
[2]
  MIC: 1 µg/mL (≈ 2.7 µM)
[3]
  t1/2: 4.1 h
[4]
  t1/2: 9.2 h
[5]
  selectivity ratio: > 20
[6]
  permeability: 3.19 10^-6 cm/s
[7]
  IC50: > 20 µg/mL
[8]
  selectivity ratio: > 5
[9]
  fraction unbound at 4 h, 10 ug/ml: 0.048
[10]
  solubility kinetic at 6 h: 4.5 µg/mL (≈ 12.1 µM)

## Cc1ccc(NCC(=O)NC2CCCCCCC2)cc1
[1]
  MIC: 32 µg/mL (≈ 117 µM)
[2]
  MIC: > 64 µg/mL

## O=C(CNc1ccccc1OC(F)(F)F)NC12CC3CC(CC(C3)C1)C2
[1]
  MIC: 1 µg/mL (≈ 2.71 µM)
[2]
  MIC: > 64 µg/mL

## O=C(CNc1ccccc1)NC1CCCCCC1
[1]
  MIC: 64 µg/mL (≈ 260 µM)
[2]
  MIC: > 64 µg/mL

## O=C(CNc1cccc(Cl)c1)NC12CC3CC(CC(C3)C1)C2
[1]
  MIC: 1 µg/mL (≈ 3.14 µM)
[2]
  MIC: 1 µg/mL (≈ 3.14 µM)
[3]
  t1/2: 1.7 h
[4]
  t1/2: 5.6 h
[5]
  selectivity ratio: > 20
[6]
  permeability: 0.32 10^-6 cm/s
[7]
  IC50: > 20 µg/mL
[8]
  selectivity ratio: > 20
[9]
  fraction unbound at 4 h, 10 ug/ml: 0.002
[10]
  solubility kinetic at 6 h: 30.3 µg/mL (≈ 95 µM)

## O=C(CNc1ccc(OC(F)(F)F)cc1)NC12CC3CC(CC(C3)C1)C2
[1]
  MIC: 16 µg/mL (≈ 43.4 µM)
[2]
  MIC: 2 µg/mL (≈ 5.43 µM)
[3]
  t1/2: 4.1 h
[4]
  t1/2: 3.1 h
[5]
  selectivity ratio: > 10
[6]
  permeability: 0.47 10^-6 cm/s
[7]
  IC50: > 20 µg/mL
[8]
  selectivity ratio: > 1.2
[9]
  fraction unbound at 4 h, 10 ug/ml: 0.002
[10]
  solubility kinetic at 6 h: 6.79 µg/mL (≈ 18.4 µM)

## C[C@H]1CC[C@H](NC(=O)CNc2ccccc2)CC1
[1]
  MIC: 64 µg/mL (≈ 260 µM)
[2]
  MIC: > 64 µg/mL

## O=C(CNc1ccc(Cl)cc1)NC1C2CC3CC(C2)CC1C3 (stereo unspecified)
[1]
  MIC: 64 µg/mL (≈ 201 µM)
[2]
  MIC: > 64 µg/mL

## Cc1ccc(NCC(=O)N[C@H]2CC[C@H](C)CC2)cc1
[1]
  MIC: 64 µg/mL (≈ 246 µM)
[2]
  MIC: > 64 µg/mL

## O=C(CNc1ccc(Br)cc1)NC12CC3CC(CC(C3)C1)C2
[1]
  MIC: 8 µg/mL (≈ 22 µM)
[2]
  MIC: 2 µg/mL (≈ 5.51 µM)
[3]
  t1/2: 4 h
[4]
  t1/2: 2.5 h
[5]
  selectivity ratio: > 10
[6]
  permeability: 0.28 10^-6 cm/s
[7]
  IC50: > 20 µg/mL
[8]
  selectivity ratio: > 2.5
[9]
  fraction unbound at 4 h, 10 ug/ml: 0.004
[10]
  solubility kinetic at 6 h: 1.3 µg/mL (≈ 3.58 µM)

## O=C(CNc1ccc(C(F)(F)F)cc1)NC12CC3CC(CC(C3)C1)C2
[1]
  MIC: 8 µg/mL (≈ 22.7 µM)
[2]
  MIC: 8 µg/mL (≈ 22.7 µM)
